# System: pulmonary adenocarcinoma
# Experiment: clinical course under other anticancer drugs in the lung cancer cases
# Type: in vivo, human
# From the text: Each case is disclosed in detail below.
Structure (SMILES),"adverse event due to erlotinib (case 4, August 2014, on the head)",primary tumor (primary lesion) under erlotinib administration (one patient who left the ketogenic diet after the 3 month evaluation),"side effects (case 2, oral dosing from September to May 2014, no ketogenic diet)"
C#Cc1cccc(Nc2ncnc3cc(OCCOC)c(OCCOC)cc23)c1 [erlotinib],eczema,contraction,
"COc1cc2ncnc(Nc3ccc(F)c(Cl)c3)c2cc1OCCCN1CCOCC1 [Iressa, gefitinib]",,,not found

# Reference: patent US20180214410A1, “Development of Dietary Therapy in Cancer” (Osaka University, priority 2015, published 2018)
